Measured values: US9919941B2, “Multiple uses of amine salts for industrial water treatment” (AMSA, Inc., priority 2012, dated 2018)
Several values for one entry are separate records, joined by “and”; a condition that tells them apart may be missing. Equal entries are not always repeated. Where two headings read alike, the source gives them in different places.

Assays:
[1] = mild steel corrosion inhibition, ASTM G31-72 coupon weight loss
Protocol: Corrosion inhibition studies of various compounds of Formula (I) were conducted according to ASTM method G31-72 (2004). The following is the general test method.
Aqueous solutions of the test compound (900 mL) were prepared with city water for mild steel corrosion studies or a dilute sea salt solution (1000 ppm in deionized water) for copper corrosion studies. The solutions were magnetically stirred at a constant rate in a 1 L beaker and three coupons of either mild steel or copper were suspended in each beaker. After 5 days (steel) or 7 days (copper), the coupons were removed and cleaned according to ASTM method G1-03. Average weight loss was determined for each set of three coupons and then converted to corrosion rate in terms of mils per year (mpy).
These tests compare the corrosion inhibition of compounds of Formula (I), namely from Table 1, in the first set of comparisons, Compound A with Compound 13, and Compound B with Compound 1, and with 2-hydroxypropane-1,2,3-tricarboxylic acid. Thus five samples were tested relative to a blank and a standard, (1-hydroxyethan-1,1-diyl)bis(phosphonic acid), after 5 days at 26 μM concentrations. […] Concentrations were 26 μM.
Additional mild steel corrosion tests were performed at 130 μM concentration of compounds of Formula (I) and comparative compounds for 5 days. The next test compared the corrosion inhibition of Compound 8 with 2,3-dihydroxybutanedioic acid and Compound B, and Compound 4 with (1-hydroxyethan-1,1-diyl)bis(phosphonic acid) and Compound B. Also included was Compound 1 for reference. Concentrations in this set were 130 μM.

[2] = test system: sessile microbial population (biofilm on stainless steel washers); test: time-kill biocidal efficacy, hybrid planktonic-sessile procedure: sessile population; type: cell-based, natural mixed aerobic microbial population; settings: 10 ppm Compound B, others equimolar; for reduction in the total sessile population: 110 minutes; for activity at 10 ppm / Sessile CFU/, 20-24 h / Sessile CFU/, 48-54 h / Sessile CFU/, 120 h / Sessile CFU/, Total / Sessile, 20-24 h, % of Control / Sessile, 48-54 h, % of Control / Sessile, 120 h, % of Control / Sessile, Total, % of Control: exposure 110 minutes; for Sessile CFU/, 20-24 h / Sessile CFU/, 48-54 h / Sessile CFU/, 120 h / Sessile CFU/, Total: per washer
Protocol: An experiment was conducted to assess biocidal effectiveness of Compounds A and B and their respective Compounds 13 and 1 anion analogs. Time-kill tests were conducted using a hybrid planktonic-sessile procedure which allowed assessment of biocidal effectiveness against both planktonic and sessile microbial populations. A natural mixed aerobic microbial population in samples collected from an operating cooling tower was used as inoculum for the test. Biocide test concentration for Compound B was 10 ppm. All other products were tested at the equivalent molar concentration. Biocide exposure was 110 minutes. The following procedure was used which generally followed the biocidal testing method of Walter, R. W. and Cooke, L. […] A New Multifunctional Biocide Which Enhances Corrosion Inhibition,” NACE Paper 410, 1997. A water sample was collected from a cooling tower that contained a natural mixed population of microorganisms that grew at different rates when plated on Petrifilm. The populations of cells that grew on Petrifilm in 20-24 hours, 48-54 hours and at 120 hours were treated as separate populations. […] The washers were allowed seven days to develop a biofilm on their surface. Prior to chemical treatment, 10 mL aliquots of the CTW were removed from the beaker and placed into individual exposure test tubes along with a single washer. Test compounds were then added to the individual tubes at equimolar concentrations. All exposure tests including untreated controls were conducted in triplicate (i.e., three washers in separate exposure tubes). After addition of the test compound, the tube was briefly mixed by mild vortexing and again occasionally throughout the exposure time. Washer sonication to release organisms not released by the chemical treatment: […], the washer was removed from the tube, dipped 10 times in Letheen broth, then placed into a 9 mL tube of sterile Butterfields buffer, and sonicated for 8 minutes. Determination of cell population removed from washers by sonication: After the tube with washer was sonicated, a 1 mL aliquot was plated onto petrifilm and a serial dilution in Butterfields Buffer was performed with each dilution being plated to petrifilm. Determination of colony forming units (CFU) at different incubation times: After plating the various solutions on Petrifilm, the films were incubated at 36° C. for the first 24 hours. At 20 hours the […] read and CFU were recorded. This population was defined as a fast growing population. The […] then incubated for additional time either at 36° C. or room temperature and read at 54 hours. This second population is in addition to the fast growth rate population and was defined as moderate growth rate organisms. Incubation was continued and the […] again after 120 hours. This third population was also treated as separate from the fast and moderate growth rate populations and is referred to as the slow growth rate population. As noted above, each compound was evaluated in triplicate with three separate washers and the results were averaged. Average CFU/mL values were used to calculate total planktonic test population (CFU/10 mL) and total sessile test population (CFU/washer) in each test system.

[3] = 130 μM, Table 5 (blank 12.5 mpy)
[4] = 5 days, 130 μM, Table 4 (blank 24 mpy)

Structure (SMILES) | Inhibition relative to blank ([1]; 5 days, 26 μM, Table 3, hydrochloride) | reduction in the total sessile population [2] [%] | activity at 10 ppm ([2]; 20-24 h incubation, read-out: Sessile, 20-24 h, % of Control) [%] | activity at 10 ppm ([2]; 48-54 h incubation, read-out: Sessile, 48-54 h, % of Control) [%] | activity at 10 ppm ([2]; 110 min, total population, read-out: Sessile, Total, % of Control) [%] | activity at 10 ppm ([2]; 120 h incubation, read-out: Sessile, 120 h, % of Control) [%] | Sessile CFU/, 20-24 h ([2]; 20-24 h incubation) [CFU/] | Sessile CFU/, 48-54 h ([2]; 48-54 h incubation) | Sessile CFU/, 120 h ([2]; 120 h incubation) | Sessile CFU/, Total ([2]; total population) | Inhibition relative to blank [1, 3] [%] | Inhibition relative to blank ([1]; 5 days, 26 μM, Table 3, 26 µM) | Inhibition relative to blank [1, 4] [%] | Sessile, 20-24 h, % of Control ([2]; 20-24 h incubation) [%] | Sessile, 48-54 h, % of Control ([2]; 48-54 h incubation) [%] | Sessile, 120 h, % of Control ([2]; 120 h incubation) [%] | Sessile, Total, % of Control ([2]; total population) [%] | Inhibition relative to blank ([1]; 5 days, 26 μM, Table 3) [%]
CCCCCCCCCCSCCN.Cl [Compound A, 2-(decylthio)ethanamine hydrochloride] | 3.3% and 3% | 96 | 182 | 0.04 | 4 | 8.8 | 405 | 360 CFU/ | 60,000 CFU/ | 60,800 CFU/ |  |  |  |  |  |  |  | 
CC(=O)O.CCCCCCCCCCOCCCN [Compound B, ethanoic acid salt of aminopropyloxydecane] |  | 80 |  |  |  |  | 207 | 49,200 CFU/ | 258,000 CFU/ | 307,000 CFU/ | −1 | 1.6% and 2% | −1 | 92.8 | 6.0 | 37.7 | 20.3 | 
CCCCCCCCCCOCCCN.O=C(O)CC(O)(CC(=O)O)C(=O)O [Compound 1, 2-hydroxypropane-1,2,3-tricarboxylic acid salt of aminopropyloxydecane] |  |  |  |  |  |  | 234 | 36,000 CFU/ | 265,000 CFU/ | 301,000 CFU/ | 87 |  | 88 | 104.9 | 4.4 | 38.7 | 19.9 | 60
